Measured values published in the NIST ThermoML archive (doi:10.1016/j.jct.2012.03.003).
Numbers after ± are expanded uncertainties.

Assay: xn = mol fraction of the nth substance listed
Settings: Liquid, Vibrating tube method

COc1cc2c(cc1O)CC1c3c(cc(O)c(OC)c3-2)CCN1C (stereo not given) [boldine] + CCO
Settings	mass density [kg/m3]
323.04 K, 16000 kPa, x1 = 0.0074	793.69 ± 0.9
323.04 K, 16000 kPa, x1 = 0.0196	821.98 ± 0.86
323.04 K, 17000 kPa, x1 = 0.0074	794.55 ± 0.9
323.04 K, 17000 kPa, x1 = 0.0196	822.81 ± 0.86
323.04 K, 18000 kPa, x1 = 0.0074	795.4 ± 0.9
323.04 K, 18000 kPa, x1 = 0.0196	823.62 ± 0.86
323.04 K, 19000 kPa, x1 = 0.0074	796.23 ± 0.91
323.04 K, 19000 kPa, x1 = 0.0196	824.42 ± 0.86
323.04 K, 20000 kPa, x1 = 0.0074	797.04 ± 0.91
323.04 K, 20000 kPa, x1 = 0.0196	825.2 ± 0.87
323.05 K, 1000 kPa, x1 = 0.0267	820.88 ± 0.7
323.05 K, 2000 kPa, x1 = 0.0267	821.74 ± 0.7
323.05 K, 3000 kPa, x1 = 0.0267	822.62 ± 0.7
323.05 K, 4000 kPa, x1 = 0.0267	823.5 ± 0.7
323.05 K, 5000 kPa, x1 = 0.0267	824.37 ± 0.7
323.05 K, 6000 kPa, x1 = 0.0267	825.26 ± 0.71
323.05 K, 7000 kPa, x1 = 0.0267	826.15 ± 0.71
323.05 K, 8000 kPa, x1 = 0.0267	827.02 ± 0.71
323.05 K, 9000 kPa, x1 = 0.0267	827.89 ± 0.71
323.05 K, 10000 kPa, x1 = 0.0267	828.78 ± 0.71
323.05 K, 11000 kPa, x1 = 0.0267	829.64 ± 0.71
323.05 K, 12000 kPa, x1 = 0.0267	830.5 ± 0.71
323.05 K, 13000 kPa, x1 = 0.0267	831.36 ± 0.72
323.05 K, 14000 kPa, x1 = 0.0267	832.21 ± 0.72
323.05 K, 15000 kPa, x1 = 0.0267	833.04 ± 0.72
323.05 K, 16000 kPa, x1 = 0.0267	833.87 ± 0.72
323.05 K, 17000 kPa, x1 = 0.0267	834.68 ± 0.72
323.05 K, 18000 kPa, x1 = 0.0267	835.48 ± 0.73
323.05 K, 19000 kPa, x1 = 0.0267	836.27 ± 0.73
323.05 K, 20000 kPa, x1 = 0.0267	837.04 ± 0.73
323.11 K, 1000 kPa, x1 = 0.0136	793.39 ± 0.96
323.11 K, 2000 kPa, x1 = 0.0136	794.29 ± 0.96
323.11 K, 3000 kPa, x1 = 0.0136	795.2 ± 0.96
323.11 K, 4000 kPa, x1 = 0.0136	796.12 ± 0.96
323.11 K, 5000 kPa, x1 = 0.0136	797.04 ± 0.96
323.11 K, 6000 kPa, x1 = 0.0136	797.96 ± 0.96
323.11 K, 7000 kPa, x1 = 0.0136	798.88 ± 0.96
323.11 K, 8000 kPa, x1 = 0.0136	799.8 ± 0.96
323.11 K, 9000 kPa, x1 = 0.0136	800.72 ± 0.97
323.11 K, 10000 kPa, x1 = 0.0136	801.63 ± 0.97
323.11 K, 11000 kPa, x1 = 0.0136	802.53 ± 0.97
323.11 K, 12000 kPa, x1 = 0.0136	803.44 ± 0.97
323.11 K, 13000 kPa, x1 = 0.0136	804.33 ± 0.97
323.11 K, 14000 kPa, x1 = 0.0136	805.21 ± 0.97
323.11 K, 15000 kPa, x1 = 0.0136	806.08 ± 0.97
323.11 K, 16000 kPa, x1 = 0.0136	806.95 ± 0.97
323.11 K, 17000 kPa, x1 = 0.0136	807.79 ± 0.98
323.11 K, 18000 kPa, x1 = 0.0136	808.63 ± 0.98
323.11 K, 19000 kPa, x1 = 0.0136	809.44 ± 0.98
323.11 K, 20000 kPa, x1 = 0.0136	810.25 ± 0.98
332.92 K, 1000 kPa, x1 = 0.0012	757.69 ± 0.86
332.92 K, 2000 kPa, x1 = 0.0012	758.72 ± 0.86
332.92 K, 3000 kPa, x1 = 0.0012	759.75 ± 0.87
332.92 K, 4000 kPa, x1 = 0.0012	760.77 ± 0.87
332.92 K, 5000 kPa, x1 = 0.0012	761.81 ± 0.87
332.92 K, 6000 kPa, x1 = 0.0012	762.85 ± 0.87
332.92 K, 7000 kPa, x1 = 0.0012	763.86 ± 0.87
332.92 K, 8000 kPa, x1 = 0.0012	764.88 ± 0.87
332.92 K, 9000 kPa, x1 = 0.0012	765.9 ± 0.88
332.92 K, 10000 kPa, x1 = 0.0012	766.9 ± 0.88
332.92 K, 11000 kPa, x1 = 0.0012	767.9 ± 0.88
332.92 K, 12000 kPa, x1 = 0.0012	768.88 ± 0.88
332.92 K, 13000 kPa, x1 = 0.0012	769.87 ± 0.88
332.92 K, 14000 kPa, x1 = 0.0012	770.83 ± 0.89
332.92 K, 15000 kPa, x1 = 0.0012	771.78 ± 0.89
332.92 K, 16000 kPa, x1 = 0.0012	772.72 ± 0.89
332.92 K, 17000 kPa, x1 = 0.0012	773.63 ± 0.89
332.92 K, 18000 kPa, x1 = 0.0012	774.53 ± 0.9
332.92 K, 19000 kPa, x1 = 0.0012	775.42 ± 0.9
332.92 K, 20000 kPa, x1 = 0.0012	776.29 ± 0.9
332.93 K, 1000 kPa, x1 = 0.0074	770.77 ± 0.88
332.93 K, 2000 kPa, x1 = 0.0074	771.77 ± 0.88
332.93 K, 3000 kPa, x1 = 0.0074	772.79 ± 0.89
332.93 K, 4000 kPa, x1 = 0.0074	773.79 ± 0.89
332.93 K, 5000 kPa, x1 = 0.0074	774.8 ± 0.89
332.93 K, 6000 kPa, x1 = 0.0074	775.81 ± 0.89
332.93 K, 7000 kPa, x1 = 0.0074	776.8 ± 0.89
332.93 K, 8000 kPa, x1 = 0.0074	777.8 ± 0.89
332.93 K, 9000 kPa, x1 = 0.0074	778.8 ± 0.89
332.93 K, 10000 kPa, x1 = 0.0074	779.77 ± 0.9
332.93 K, 11000 kPa, x1 = 0.0074	780.75 ± 0.9
332.93 K, 12000 kPa, x1 = 0.0074	781.71 ± 0.9
332.93 K, 13000 kPa, x1 = 0.0074	782.66 ± 0.9
332.93 K, 14000 kPa, x1 = 0.0074	783.61 ± 0.9
332.93 K, 15000 kPa, x1 = 0.0074	784.53 ± 0.91
332.93 K, 16000 kPa, x1 = 0.0074	785.45 ± 0.91
332.93 K, 17000 kPa, x1 = 0.0074	786.34 ± 0.91
332.93 K, 18000 kPa, x1 = 0.0074	787.23 ± 0.91
332.93 K, 19000 kPa, x1 = 0.0074	788.09 ± 0.92
332.93 K, 20000 kPa, x1 = 0.0074	788.95 ± 0.92
332.95 K, 1000 kPa, x1 = 0.0196	799.67 ± 0.84
332.95 K, 2000 kPa, x1 = 0.0196	800.63 ± 0.84
332.95 K, 3000 kPa, x1 = 0.0196	801.6 ± 0.84
332.95 K, 4000 kPa, x1 = 0.0196	802.56 ± 0.84
332.95 K, 5000 kPa, x1 = 0.0196	803.52 ± 0.85
332.95 K, 6000 kPa, x1 = 0.0196	804.48 ± 0.85
332.95 K, 7000 kPa, x1 = 0.0196	805.45 ± 0.85
332.95 K, 8000 kPa, x1 = 0.0196	806.4 ± 0.85
332.95 K, 9000 kPa, x1 = 0.0196	807.35 ± 0.85
332.95 K, 10000 kPa, x1 = 0.0196	808.29 ± 0.85
332.95 K, 11000 kPa, x1 = 0.0196	809.23 ± 0.85
332.95 K, 12000 kPa, x1 = 0.0196	810.15 ± 0.85
332.95 K, 13000 kPa, x1 = 0.0196	811.07 ± 0.85
332.95 K, 14000 kPa, x1 = 0.0196	811.98 ± 0.85
332.95 K, 15000 kPa, x1 = 0.0196	812.86 ± 0.86
332.95 K, 16000 kPa, x1 = 0.0196	813.75 ± 0.86
332.95 K, 17000 kPa, x1 = 0.0196	814.61 ± 0.86
332.95 K, 18000 kPa, x1 = 0.0196	815.46 ± 0.86
332.95 K, 19000 kPa, x1 = 0.0196	816.3 ± 0.86
332.95 K, 20000 kPa, x1 = 0.0196	817.11 ± 0.87
333 K, 1000 kPa, x1 = 0.0267	811.86 ± 0.7
333 K, 2000 kPa, x1 = 0.0267	812.8 ± 0.7
333 K, 3000 kPa, x1 = 0.0267	813.76 ± 0.7
333 K, 4000 kPa, x1 = 0.0267	814.69 ± 0.71
333 K, 5000 kPa, x1 = 0.0267	815.65 ± 0.71
333 K, 6000 kPa, x1 = 0.0267	816.59 ± 0.71
333 K, 7000 kPa, x1 = 0.0267	817.53 ± 0.71
333 K, 8000 kPa, x1 = 0.0267	818.45 ± 0.71
333 K, 9000 kPa, x1 = 0.0267	819.38 ± 0.71
333 K, 10000 kPa, x1 = 0.0267	820.29 ± 0.71
333 K, 11000 kPa, x1 = 0.0267	821.22 ± 0.71
333 K, 12000 kPa, x1 = 0.0267	822.11 ± 0.72
333 K, 13000 kPa, x1 = 0.0267	823.01 ± 0.72
333 K, 14000 kPa, x1 = 0.0267	823.9 ± 0.72
333 K, 15000 kPa, x1 = 0.0267	824.77 ± 0.72
333 K, 16000 kPa, x1 = 0.0267	825.63 ± 0.72
333 K, 17000 kPa, x1 = 0.0267	826.48 ± 0.73
333 K, 18000 kPa, x1 = 0.0267	827.32 ± 0.73
333 K, 19000 kPa, x1 = 0.0267	828.13 ± 0.73
333 K, 20000 kPa, x1 = 0.0267	828.94 ± 0.73
333.04 K, 1000 kPa, x1 = 0.0136	784.43 ± 0.96
333.04 K, 2000 kPa, x1 = 0.0136	785.41 ± 0.96
333.04 K, 3000 kPa, x1 = 0.0136	786.41 ± 0.96
333.04 K, 4000 kPa, x1 = 0.0136	787.39 ± 0.96
333.04 K, 5000 kPa, x1 = 0.0136	788.38 ± 0.96
333.04 K, 6000 kPa, x1 = 0.0136	789.37 ± 0.97
333.04 K, 7000 kPa, x1 = 0.0136	790.36 ± 0.97
333.04 K, 8000 kPa, x1 = 0.0136	791.33 ± 0.97
333.04 K, 9000 kPa, x1 = 0.0136	792.31 ± 0.97
333.04 K, 10000 kPa, x1 = 0.0136	793.27 ± 0.97
333.04 K, 11000 kPa, x1 = 0.0136	794.24 ± 0.97
333.04 K, 12000 kPa, x1 = 0.0136	795.2 ± 0.97
333.04 K, 13000 kPa, x1 = 0.0136	796.14 ± 0.97
333.04 K, 14000 kPa, x1 = 0.0136	797.07 ± 0.98
333.04 K, 15000 kPa, x1 = 0.0136	797.98 ± 0.98
333.04 K, 16000 kPa, x1 = 0.0136	798.89 ± 0.98
333.04 K, 17000 kPa, x1 = 0.0136	799.78 ± 0.98
333.04 K, 18000 kPa, x1 = 0.0136	800.65 ± 0.98
333.04 K, 19000 kPa, x1 = 0.0136	801.51 ± 0.98
333.04 K, 20000 kPa, x1 = 0.0136	802.34 ± 0.99
